Measurements published in ChEMBL document CHEMBL6103664, “Novel Pyrimidinyl Sulfonamide Derivatives as GPR17 Modulators” (ACS Med Chem Lett, 2025).

Assays:
Type in all cases: ADME, Microsome
Settings in all cases: time 55 min
[1] = Clearance in human microsomes assessed per mg protein at 1 uM preincubated for 10 mins followed by NADPH addition and measured after 1 to 45 mins by LC-MS/MS analysis
[2] = Clearance in mouse microsomes assessed per mg protein at 1 uM preincubated for 10 mins followed by NADPH addition and measured after 1 to 45 mins by LC-MS/MS analysis
[3] = Clearance in rat microsomes assessed per mg protein at 1 uM preincubated for 10 mins followed by NADPH addition and measured after 1 to 45 mins by LC-MS/MS analysis

| microsomal CLint at 1 µM [1] | microsomal CLint at 1 µM [2] | microsomal CLint at 1 µM [3] | Compound |
| --- | --- | --- | --- |
| 10 µL/min/mg | 12 µL/min/mg | 32 µL/min/mg | COc1nc(NS(=O)(=O)c2c[nH]c(-c3ncccc3F)c2)nc(OC)c1OCCF |
| 10 µL/min/mg | 10 µL/min/mg | 50 µL/min/mg | COc1nc(NS(=O)(=O)c2c[nH]c(-c3nccs3)c2)nc(OC)c1OC(F)F |
| 10 µL/min/mg | 21 µL/min/mg | 81 µL/min/mg | COc1nc(NS(=O)(=O)c2c[nH]c(-c3ccccc3)c2)nc(OC)c1OCC(F)F |
